In US5663149A, “Human cancer inhibitory pentapeptide heterocyclic and halophenyl amides” (priority 1994, dated 1997):

Columns and labels:
[1] = test system: P388 Lymphocytic Leukemia; assay: Murine in vivo system, P388 Lymphocytic Leukemia; settings: P388, dose 13.0 μg/kg
Description: (§1) Experimental Anti-cancer Activity of Dolastatin 10 in Murine in vivo Systems, T/C (μg/kg)

M5076 Ovary Sarcoma = assay: Murine in vivo system, M5076 Ovary Sarcoma; settings: M5076, dose 26 μg/kg
Description: as §1

[2] = test system: LOX Human Melanoma Xenograft; assay: LOX Human Melanoma Xenograft in nude mouse; type: in vivo; settings: dose 52 μg/kg
Description: as §1

Human Mammary Xenograft = Human Mammary Xenograft in nude mouse; type: in vivo; settings: dose 26 μg/kg
Description: as §1

OVCAR-3 (Ovarian) = assay: NCI human tumor cell line growth inhibition, OVCAR-3; type: cell-based; settings: Ovarian OVCAR-3, 48 hours
Description: (§2) The only difference is historical usage.
(§3) Percent Growths are calculated for each dose.
(§4) This is the "baseline count", or "Tzero reading".

SF-295 (CNS) = assay: NCI human tumor cell line growth inhibition, SF-295; type: cell-based; settings: CNS SF-295, 48 hours
Description: as §2, §3, §4

NCI-H460 (Lung-NSC) = assay: NCI human tumor cell line growth inhibition, NCI-H460; type: cell-based; settings: Lung-NSC NCI-H460, 48 hours
Description: as §2, §3, §4

KM20L2 (Colon) = assay: NCI human tumor cell line growth inhibition, KM20L2; type: cell-based; settings: Colon KM20L2, 48 hours
Description: as §2, §3, §4

SK-MEL-5 (Melanoma) = assay: NCI human tumor cell line growth inhibition, SK-MEL-5; type: cell-based; settings: Melanoma SK-MEL-5, 48 hours
Description: as §2, §3, §4

PS-388 (Mouse Leukemia) = assay: P-388 mouse leukemia cell growth inhibition; type: cell-based; settings: Mouse Leukemia PS-388
Description: as §2, §3, §4

A498 (Renal) = settings: Renal A498, 48 hours;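 also: NCI protocol, compound given at five doses from 0.01 to 100 µg/ml, percent growth versus untreated controls relative to cell count at time zero, regression on log dose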
Description: The following measures are used to express drug activity by giving the drug dose which reduces cell growth to a specified percentage of growth:
There is no mathematical difference between ED50 and GI50, which are both calculated using the same formula. The only difference is historical usage.
TGI, (Total Growth Inhibition), is the drug dose needed to yield zero percent growth, i.e., just as many cells at the end of the experiment as were present in the beginning. Whether just as many cells were killed as were produced (steady state), or no growth occurred (total inhibition), cannot be distinguished.
Each drug is tested at five (5) doses: 100-10-1-0.1-0.01 μg/ml. Percent Growths are calculated for each dose. […] The log of the dose is used during the regression computation.
At the start of an experiment, cells from the in vitro cell cultures are inoculated into the appropriate tubes or microtiter plates. One set of control tubes/plates is immediately counted to determine the number of cells at the start of the experiment. This is the "baseline count", or "Tzero reading". At the end of the experiment (48 hours later) a second set of control tubes/plates is analyzed to determine the "Control Growth" value. The growth (or death) of cells relative to the initial quantity of cells is used to define the "Percent of Growth".

Compound	GI-50 (OVCAR-3 (Ovarian)) [µg/mL]	TGI (OVCAR-3 (Ovarian)) [ng/mL]	GI-50 (SF-295 (CNS)) [µg/mL]	TGI (SF-295 (CNS)) [ng/mL]	GI-50 (NCI-H460 (Lung-NSC)) [µg/mL]	TGI (NCI-H460 (Lung-NSC)) [ng/mL]	GI-50 (KM20L2 (Colon)) [µg/mL]	TGI (KM20L2 (Colon)) [ng/mL]	GI-50 (SK-MEL-5 (Melanoma)) [µg/mL]	TGI (SK-MEL-5 (Melanoma)) [ng/mL]	ED-50 (PS-388 (Mouse Leukemia)) [µg/mL]	GI-50 (A498 (Renal)) [µg/mL]	TGI (A498 (Renal)) [ng/mL]	also measured
CC[C@H](C)[C@@H]([C@@H](CC(=O)N1CCC[C@H]1[C@H](OC)[C@@H](C)C(=O)N[C@@H](Cc1ccccc1)c1nccs1)OC)N(C)C(=O)[C@@H](NC(=O)[C@H](C(C)C)N(C)C)C(C)C [Dolastatin 10]	–	–	–	–	–	–	–	–	–	–	–	–	–	T/C outcome: toxic [1]: toxic; T/C outcome: toxic (M5076 Ovary Sarcoma): toxic; T/C outcome: toxic [2]: toxic; T/C outcome: toxic (Human Mammary Xenograft): Toxic
L-Dolavalyl-L-Valyl-N-Methyl-(S,S,R)-Dolaisoleuinyl-(S,R,R)-Dolaproinyl-L- Phenylalanine N-2,5-Dichlorophenyl Amide [9h]	0.0000031	0.017	0.0000036	> 0.1	0.0000029	0.012	0.0000042	0.037	0.0000031	> 0.1	0.0000482	0.000016	> 0.1	LC-50 (OVCAR-3 (Ovarian)): > 0.0001 µg/mL; LC-50 (SF-295 (CNS)): > 0.0001 µg/mL; LC-50 (NCI-H460 (Lung-NSC)): > 0.0001 µg/mL; LC-50 (KM20L2 (Colon)): > 0.0001 µg/mL; LC-50 (SK-MEL-5 (Melanoma)): > 0.0001 µg/mL; LC-50 (A498 (Renal)): > 0.0001 µg/mL
L-Dolavalyl-L-Valyl-N-Methyl-(S,S,R)-Dolaisoleuinyl-(S,R,R)-Dolaproinyl-L- Phenylalanine N-2-(6-Chloro)benzothiazole Amide [9k]	0.0000043	0.027	0.000022	> 0.1	0.0000044	0.063	0.000022	0.072	0.000003	> 0.1	0.000383	0.000031	> 0.1	–
L-Dolavalyl-L-Valyl-N-Methyl-(S,S,R)-Dolaisoleuinyl-(S,R,R)-Dolaproinyl-L- Phenylalanine N-2-(6-Fluoro)benzothiazole Amide [9j]	0.0000031	0.012	0.0000044	> 0.1	0.0000041	0.036	0.0000033	0.013	0.0000013	> 0.1	0.000227	0.000016	> 0.1	–
